Entries after “also recorded” stand apart in the source; their conditions may differ.
Tests used:
[1] = test system: autochthonous mouse pancreatic tumors (KPC model); assay: In vitro T cell exclusion assay: vibratome sections of KPC pancreatic tumors overlaid with activated T cells; type: cell-based; conditions: culture in the presence of the substance, 37° C. for up to 120 min
Text: This assay tests the mechanism of T cell exclusion from the vicinity of the cancer cells. It also allows screening of drugs and tumors for potential efficacy. This in vitro assay may also be used to screen other drugs (anti-CXCL12, anti-CXCR4, other CXCR4-directed small molecules) that may interfere with the CXCL12/CXCR4 interaction.
300 um vibratome sections of fresh autochthonous mouse pancreatic tumors (the mouse KPC model of Hingorani et al., Cancer Cell 2005) are overlaid with labeled mouse splenic T cells that have been activated in vitro for several days with anti-CD3 and IL-2 (this generates a T cell population that is like the effector T cells that normally infiltrate inflamed tissues/tumors). The tumor tissue+labeled T cells are then cultured at 37° C. for up to 120 min, after which the non-infiltrated T cells are washed off. The vibratome sections are then fixed for staining (p53 which identifies cancer cells) and SHG (to visualize collagen/stromal regions) by confocal microscopy.

LL2/OVA tumors = conditions: AMD3100 30 mg/ml osmotic pump; C57BL/6 and Rag2−/− mice
Procedure: C57BL/6 were purchased from Charles River UK and Rag2−/− mice were bred at the local establishment. 2×10^5 LL2/OVA cells were injected subcutaneously in RPMI with 1% heat inactivated mouse serum. Tumor sizes were measured using calipers, measuring the long (L) and short (S) dimension, and tumor volumes were calculated using the equation: volume=(L×S2)/2.

PDA [2] = assay: Immunofluorescent confocal microscopy / ARIOL scanning of KPC tumor sections after treatment; type: in vivo, mouse
Procedure: (§1) All experiments were performed in accordance with institutional guidelines and were approved by the UK Home Office and the animal ethics committee of CRUK and the University of Cambridge. Mice were housed at a 12-hour light/12-hour dark cycle and received diet and water ad libitum. The generation of LSL-[…]; LSL10 Tp53R172H/+; Pdx-1-Cre (KPC) and FAP-DTR BAC transgenic mice has been described previously (8, 10). These strains were crossed to generate KPCD (Kras; p53; Cre; DTR) mice. KPC and KPCD mice were screened for tumors from an age of 60 days by abdominal palpation. Tumors were verified by high-resolution ultrasound (Vevo 2100, VisualSonics). Mice with average tumor diameters between 5-8 mm (corresponding to approx. 200 mm3 volume) were enrolled on 6 day treatment studies with 2 follow-up tumor size measurements (day 3 and 6). Where possible, tumors were assessed at multiple angles and the volumes averaged. KPC(−/+DTR Tg) mice were treated every 48 h with 25 ng/g DTx (List Biologicals) in PBS, […] α-PD1 (10F.9G2, Biolegend), 100 μg α-CTLA-4 (9H10, Biolegend) or isotype control antibody by intraperitoneal injection. […] For T-cell depletion studies mice received […] each of α-CD4 (GK1.5, Biolegend) and α-CD8α (53-6.7, Bioloegend) or respective isotype control antibodies for 3 consecutive […] before treatment start and on days 2 and 5 during the course of treatment via intraperitoneal injection.
5 μm frozen tissue sections were fixed in 4% paraformaldehyde (PFA) for 10 minutes at room temperature. Slides were blocked for one hour in 10% donkey serum (Sigma Aldrich)/0.2% Triton x-100. Primary antibodies were incubated overnight at 4° C. Following washing, slides were incubated for one hour at room temperature with appropriate secondary antibody and DAPI counterstain. Slides were subsequently incubated in 0.3M glycine for 10 minutes to reduce autofluorescence and mounted in Hydromount aqueous mounting medium (Fisher Scientific). Images were acquired on a Leica SP5 tandem confocal microscope. For analysis of p53 and Treg staining slides were scanned and analyzed using the automated ARIOL XT system.

PDA [3] = assay: PDA tumor volume by ultrasound in KPC / KPCD mice, 6 day treatment; type: in vivo, mouse
Procedure: as §1

[4] = AMD3100 in combination with α-PD-L1, 24 h treatment

Compound | Localization of T cells in tumor sections [1] | Control of subcutaneous LL2 tumors (tumor volume) (LL2/OVA tumors) | Composition of residual tumors (PDA [2]; AMD3100 alone, ARIOL scanning) | Proliferating Ki67+ cells (PDA [2]; AMD3100 and anti-PD-L1, 6 days (FIG. 11, panel E)) | Foxp3+ cells in the tumors (PDA [2]; AMD3100 high in combination with α-PD-L1, 24 h) | Accumulation of T cells amongst cancer cells (PDA [2]; [4]) | Frequency of p53+ LOH cancer cells (PDA [2]; [4]) | Composition of residual tumors (PDA [2]; AMD3100 with α-PD-L1, ARIOL scanning) | Presence of p53+ LOH cancer cells in tumors (PDA [2]; AMD3100 with α-PD-L1, after 6 days of treatment) | Accumulation of T cells amongst cancer cells (PDA [2]; single agent, 24 h treatment) | Presence of p53+ LOH cancer cells in tumors (PDA [2]; single agent, after 6 days of treatment) | Tumor growth (PDA [3]; AMD3100 by osmotic pump, presence or absence of depleting antibodies to CD4+ and CD8+ T cells) | Decline in PDA volume (PDA [3]; higher dose AMD3100 in combination with α-PD-L1, by 48 h, maintained for 6 days) [%] | PDA growth (PDA [3]; higher dose of AMD3100 (osmotic pump)) | Interaction of AMD3100 with α-PD-L1 (PDA [3]; murine PDA, combination)
Z-VAD | T cells accumulating also amongst cancer cells |  |  |  |  |  |  |  |  |  |  |  |  |  | 
c1cc(CN2CCCNCCNCCCNCC2)ccc1CN1CCCNCCNCCCNCC1 [AMD3100, 1,1′-[1,4-phenylenebis(methylene)]bis [1,4,8,11-tetraazacyclotetradecane]] | T cells to be found in both stromal and cancer cell regions | T cell-dependent control of subcutaneous immunogenic LL2 tumors | comprised of premalignant CK19+ epithelial cells and CD45+ inflammatory cells | diminution in proliferating Ki67+ cells | increase | amplified this effect; also recorded: induce the accumulation of CD3+ T cells in cancer-cell-containing regions of PDA | decreased the frequency of p53+ LOH cells; also recorded: loss of cancer cells | comprised of premalignant CK19+ epithelial cells and CD45+ inflammatory cells | rare | increased the accumulation of T cells; also recorded: exclusion is overcome | rare | slowed by AMD3100 in a T cell-dependent manner | 15 | almost completely arrested PDA growth | remarkable synergistic interaction
